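Dose response: 5 concentrations. Exposure: 48 h. Format: 96-well plates. Endpoint: linear interpolation; highest concentration if not reached. TGI marks complete inhibition of growth.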

Among the test systems are UO-31 renal; SN12C renal; CAKI-1 renal; OVCAR-5 ovarian; SK-MEL-5 melanoma; RPMI-8226 leukemia; BT-549 breast; SK-MEL-2 melanoma; SF-268 CNS; SK-MEL-28 melanoma; OVCAR-3 ovarian; HCT-15 colon; HCC-2998 colon; SNB-75 CNS; DU-145 prostate; A498 renal; MDA-N; 786-0 renal; UACC-257 melanoma; RXF 393 renal.
Assay in all cases: NCI tumour cell line growth inhibition, 48 h

Turning to `CCCCN1C(=O)C2Cc3c([nH]c4ccccc34)C(c3cccc(O)c3)N2C1=O` (configuration not stated), the TGI in the experiment with UO-31 renal was found to be 32.8 µM; in the experiment on SN12C renal, 32.5 µM; in the experiment with CAKI-1 renal, 33.9 µM; in the experiment on OVCAR-5 ovarian it was 33 µM; in the experiment with SK-MEL-5 melanoma it was 31.1 µM; in the experiment on RPMI-8226 leukemia, 51.2 µM. The TGI was 34.2 µM in the experiment with BT-549 breast; 32.9 µM in the experiment with SK-MEL-2 melanoma; 34.7 µM in the experiment with SF-268 CNS; 34.3 µM in the experiment with SK-MEL-28 melanoma; 30.2 µM with OVCAR-3 ovarian; 37.2 µM in the experiment on HCT-15 colon. Further, the TGI amounted to 34.2 µM in the experiment on HCC-2998 colon; 32.7 µM with SNB-75 CNS; 33.1 µM in the experiment with DU-145 prostate; 32.8 µM with A498 renal; 36.3 µM in the experiment with MDA-N; 34.4 µM in the experiment on 786-0 renal. In the experiment on UACC-257 melanoma, this compound displayed a TGI of 33.9 µM.

In the case of `C[C@H]1C[C@@H]2[C@H]([C@@H](O)C[C@@]3(C)[C@H]2CC[C@]3(O)C(=O)CO)[C@@]2(C)C=CC(=O)C=C12`, the TGI in the experiment with UO-31 renal, in the experiment with SN12C renal, in the experiment on CAKI-1 renal, with OVCAR-5 ovarian, in the experiment on SK-MEL-5 melanoma and in the experiment with RPMI-8226 leukemia was greater than 100 µM each time. Also, the TGI with SK-MEL-2 melanoma, in the experiment on SK-MEL-28 melanoma, in the experiment on OVCAR-3 ovarian, with HCT-15 colon, in the experiment on HCC-2998 colon and in the experiment with A498 renal was greater than 100 µM throughout. The TGI with 786-0 renal and in the experiment on UACC-257 melanoma was greater than 100 µM throughout.

Regarding `C=CCOC(=O)CC[C@H](NC(=O)[C@@H](CCC(F)(F)F)Cc1ccc(O)cc1)C(=O)OCC=C`, the TGI is greater than 100 µM in the experiment with UO-31 renal; greater than 100 µM with SN12C renal; greater than 100 µM with CAKI-1 renal; greater than 100 µM with RXF 393 renal; greater than 100 µM in the experiment with OVCAR-5 ovarian; 35 µM in the experiment with SK-MEL-5 melanoma. Also, the TGI in the experiment with RPMI-8226 leukemia was 74.6 µM; in the experiment with BT-549 breast it was greater than 100 µM; in the experiment on SF-268 CNS it was greater than 100 µM; in the experiment with SK-MEL-28 melanoma it was 45.6 µM; in the experiment on HCT-15 colon, greater than 100 µM; with SNB-75 CNS it was 77.2 µM. Also, the TGI with MDA-N and in the experiment on 786-0 renal was greater than 100 µM in each case.

In the case of `Cc1ccc(O)c(Cc2nc3ccccc3nc2-c2cccc(Cl)c2)c1`, the TGI with UO-31 renal, with SN12C renal, in the experiment on CAKI-1 renal, with RXF 393 renal, in the experiment with OVCAR-5 ovarian and with SK-MEL-5 melanoma was greater than 100 µM each time. In addition, the TGI in the experiment with RPMI-8226 leukemia was 79.4 µM; in the experiment with BT-549 breast it was greater than 100 µM; in the experiment on SK-MEL-2 melanoma, greater than 100 µM; in the experiment on SF-268 CNS it was greater than 100 µM; in the experiment on OVCAR-3 ovarian, greater than 100 µM; in the experiment with HCT-15 colon it was 46.1 µM. The TGI in the experiment on HCC-2998 colon, in the experiment on DU-145 prostate, with MDA-N, in the experiment on 786-0 renal and in the experiment with UACC-257 melanoma was greater than 100 µM in each case.

In the case of `COC1/C=C(C)/C=C/C(C)/C=C/C(=O)OC(/C(C)=C/C=C(\C)CNC(=O)[C@H](CO)NC=O)C(C)/C=C/C=C/C(OC)CC/C=C(C)/C=C/C1` (some centres not stated), the TGI in the experiment with UO-31 renal was greater than 0.735 µM; with SN12C renal, greater than 1 µM; with CAKI-1 renal, greater than 0.397 µM; in the experiment with RXF 393 renal, greater than 1 µM; in the experiment on OVCAR-5 ovarian, greater than 1 µM; in the experiment on SK-MEL-5 melanoma, 0.0654 µM. The TGI in the experiment with RPMI-8226 leukemia was 0.0769 µM; in the experiment on BT-549 breast, greater than 1 µM; in the experiment on SK-MEL-2 melanoma, greater than 0.246 µM; in the experiment on SF-268 CNS it was greater than 1 µM; with SK-MEL-28 melanoma, greater than 1 µM; with OVCAR-3 ovarian, greater than 0.461 µM. Moreover, the TGI in the experiment on HCT-15 colon was greater than 1 µM; in the experiment on SNB-75 CNS it was greater than 1 µM; with DU-145 prostate, greater than 1 µM; with A498 renal, greater than 1 µM; in the experiment with 786-0 renal, greater than 1 µM; in the experiment on UACC-257 melanoma, greater than 0.206 µM.

For `CNC(=O)OCc1nc(SC)n(C)c1CO`, the TGI with UO-31 renal, with SN12C renal, in the experiment with CAKI-1 renal, in the experiment with RXF 393 renal, in the experiment on OVCAR-5 ovarian and with SK-MEL-5 melanoma was greater than 100 µM each time. For the same compound, the TGI in the experiment with RPMI-8226 leukemia was greater than 100 µM; in the experiment with SK-MEL-2 melanoma, greater than 66.8 µM; in the experiment on SF-268 CNS, greater than 100 µM; in the experiment on SK-MEL-28 melanoma, greater than 100 µM; in the experiment with OVCAR-3 ovarian, greater than 100 µM; with HCT-15 colon it was greater than 100 µM. In addition, the TGI with HCC-2998 colon, in the experiment on SNB-75 CNS, with A498 renal and in the experiment on UACC-257 melanoma was greater than 100 µM in each case.

For the compound `CCCCc1ccc(N=C(N)N)cc1`, the TGI in the experiment on UO-31 renal is greater than 100 µM; in the experiment on SN12C renal, greater than 100 µM; in the experiment on CAKI-1 renal, greater than 100 µM; in the experiment with OVCAR-5 ovarian it was greater than 100 µM; in the experiment on SK-MEL-5 melanoma it was 26.8 µM; in the experiment on RPMI-8226 leukemia it was 45.2 µM. In addition, the TGI in the experiment on BT-549 breast is 90.7 µM; in the experiment with SK-MEL-2 melanoma, greater than 100 µM; in the experiment with SF-268 CNS, greater than 100 µM; in the experiment with SK-MEL-28 melanoma, greater than 100 µM; in the experiment on OVCAR-3 ovarian, greater than 100 µM; in the experiment with HCT-15 colon it was greater than 100 µM. For the same compound, the TGI was 30.4 µM in the experiment on HCC-2998 colon; greater than 100 µM in the experiment with DU-145 prostate; greater than 100 µM in the experiment with A498 renal; 67 µM in the experiment with MDA-N; 48.8 µM in the experiment with 786-0 renal; greater than 100 µM in the experiment on UACC-257 melanoma.

As to `C[C@@H]1C[C@H]2[C@@H]3CCC4=CC(=O)C=C[C@]4(C)[C@@]3(F)[C@@H](O)C[C@]2(C)[C@@]1(O)C(=O)CO`, the TGI in the experiment with UO-31 renal, in the experiment on SN12C renal, with CAKI-1 renal, with OVCAR-5 ovarian, in the experiment with SK-MEL-5 melanoma and in the experiment on SK-MEL-2 melanoma was greater than 100 µM in each case. Further, the TGI in the experiment on SK-MEL-28 melanoma, in the experiment with OVCAR-3 ovarian, with HCT-15 colon, with 786-0 renal and in the experiment with UACC-257 melanoma was greater than 100 µM each time.

For the origin of these results see PubChem BioAssay (NCI).
